The values that follow come from publication PMC7031696 (Cell chemical biology, 2019).

In assay [1] the test system is Plasmodium falciparum 3D7-A10 parasites. Briefly: Stage specificity assay (8-h exposure of synchronized stages, IC50^8h). The class given is cell-based. As to conditions: for Ratio lowest IC50 8hr/IC50 72hr: 3D7-A10; for Stage of peak activity (Figure 6): period when the parasite was most susceptible (lowest IC50^8h).
Assay [2] relates to asynchronous 3D7-A10 parasite cultures. The assay is described as follows: Standard 72-h exposure asexual blood stage susceptibility assay (IC50^72h). Format: cell-based, Plasmodium falciparum. Conditions: read-out: Overall (72hr assay) Mean IC50 (IC50^72h); 72-h exposure, asynchronous 3D7-A10.
Where [3] appears, read: read-out: Early trophozoites Mean IC50 (IC50^8h), 8-h exposure 16–24 hr, 3D7-A10, survival at 60 h.
Where [4] appears, read: read-out: Late trophozoites Mean IC50 (IC50^8h), 8-h exposure 24–32 hr, 3D7-A10, survival at 60 h.
The mark [5] stands for this setting: read-out: Schizonts Mean IC50 (IC50^8h), 8-h exposure 32–40 hr, 3D7-A10, survival at 60 h.
Where [6] appears, read: read-out: Early rings Mean IC50 (IC50^8h), 8-h exposure 0–8 hr, 3D7-A10, survival at 60 h.
The mark [7] stands for this setting: read-out: Late rings Mean IC50 (IC50^8h), 8-h exposure 8–16 hr, 3D7-A10, survival at 60 h.

“Also recorded” adds a separate entry of the source. Like-named read-outs stand apart in the source and are kept apart here.

Take `CC(C)(C)c1ccc2c(c1)CN(Cc1ccc(Cl)cc1)CO2` [MMV000442]: in assay [1], the “Ratio lowest IC50 8hr/IC50 72hr” value is given as 4.7. In assay [1] (8-h exposures, survival curves), the “killing in stage specificity assay” value was “incomplete killing at all asexual blood stages”. The “Stage of peak activity (Figure 6)” value in assay [1] was “trophozoites”. For the same compound, the IC50 in assay [1] (read-out: Early rings IC50 (IC50^8h), 8-h exposure 0–8 hr, bound given in μM) was > 8 µM; in assay [1] (setting [3]) it was 0.176 µM; in assay [1] (read-out: Late rings IC50 (IC50^8h), 8-h exposure 8–16 hr, bound given in μM), > 8 µM; in assay [1] (setting [4]), 0.197 µM; in assay [1] (setting [5]), 0.503 µM; in assay [2], 0.0372 µM. Further, in assay [1] (stage(s) with the lowest IC50^8h), the “Peak Activity (Table S1)” value is “Trophs”.
On to `CN(C)Cc1ccc(-c2cc3c(-c4ccc(CN(C)C)cc4)ccnc3[nH]2)cc1.O=C(O)C(F)(F)F` [MMV022224], for which the “Ratio lowest IC50 8hr/IC50 72hr” value in assay [1] is listed as 2.7. The “overall activity profile (stages on which active)” value in assay [1] (8-h exposures) is “activity exclusively in rings and trophozoites but not in schizonts”. In addition, in assay [1], the “Stage of peak activity (Figure 6)” value was “rings and trophozoites”. The IC50 in assay [1] (setting [6]) came to 0.838 µM; in assay [1] (setting [3]) it was 0.542 µM; in assay [1] (setting [7]), 0.845 µM; in assay [1] (setting [4]), 0.752 µM; in assay [1] (setting [5]), 2.49 µM; in assay [2], 0.199 µM.
With `CC(C)(C)NCc1cc(Nc2ccnc3cc(Cl)ccc23)c2c(c1O)CCCC2` [Naphtoquine, Naphthoquine, reference compound], the “Ratio lowest IC50 8hr/IC50 72hr” value in assay [1] is recorded as 1.3. The “Stage of peak activity (Figure 6)” value in assay [1] was “early rings; also recorded: ring stages”. Further, the IC50 came to 0.0042 µM in assay [1] (setting [6]); 0.0195 µM in assay [1] (setting [3]); 0.0081 µM in assay [1] (setting [7]); 0.0292 µM in assay [1] (setting [4]); 0.0428 µM in assay [1] (setting [5]); 0.0032 µM in assay [2].
As for Ferroquine [reference compound], the “Ratio lowest IC50 8hr/IC50 72hr” value in assay [1] was 1.4. The “Stage of peak activity (Figure 6)” value in assay [1] was “early rings; also recorded: ring stages”. In addition, the IC50 turned out to be 0.0049 µM in assay [1] (setting [6]); 0.0232 µM in assay [1] (setting [3]); 0.0109 µM in assay [1] (setting [7]); 0.0368 µM in assay [1] (setting [4]); 0.0493 µM in assay [1] (setting [5]); 0.0035 µM in assay [2].

In general, IC50 refers to the concentration that inhibits the measured activity by half.
